Data as given in patent US11219215B2, “Herbicidal composition comprising cinmethylin and specific inhibitors of protoporphyrinogen oxidase” (BASF Agro B.V., priority 2015, dated 2022).
Several values for one entry are separate records, joined by “and”; a condition that tells them apart may be missing. Identical values can stand only once.

What was measured:
Assay type in all cases: in vivo
Avena fatua = assay: Greenhouse preemergence herbicidal activity, AVEFA; details: 20 DAT
Experimental: (§1) The containers were irrigated gently to promote germination and growth and subsequently covered with transparent plastic hoods until the plants had rooted.
(§2) The plants have been cultivated due to their individual requirements at 10-25° C. and 20-35° C.
(§3) The plants were irrigated due to their necessity.
(§4) The racemic mixture (±)-2-exo-(2-Methylbenzyloxy)-1-methyl-4-isopropyl-7-oxabicyclo[2.2.1]heptane was used as herbicide A and formulated as emulsifiable concentrates with an active ingredient concentration of 50g/I, 100 g/I or 750 g/I respectively.
(§5) Flumioxazin (herbicide B.1) was used as a wettable powder (WP) formulation having an active ingredient concentration of 50%.
(§6) Sulfentrazone (herbicide B.2) was used as a suspension concentrate (SC) having an active ingredient concentration of 480 g/l.
(§7) In the following experiments, the herbicidal activity for the individual herbicidal compositions (solo and mixture applications) was assessed 20 days after treatment (DAT). […]
(§8) The value E corresponds to the effect (plant damage or injury) which is to be expected if the activity of the individual compounds is additive. If the observed effect is higher than the value E calculated according to the Colby equation, a synergistic effect is present.

Alopecurus myosuroides = assay: Greenhouse preemergence herbicidal activity, ALOMY; details: 20 DAT
Experimental: as §1, §2, §3, §4, §5, §6
(§9) In the following experiments, the herbicidal activity for the individual herbicidal compositions (solo and mixture applications) was assessed 20 days after treatment (DAT).
(§10) The evaluation for the damage on undesired weeds caused by the chemical compositions was carried out using a scale from 0 to 100%, compared to the untreated control plants. Here, 0 means no damage and 100 means complete destruction of the plants.
(§11) E=X+Y−(X·Y/100) where X=effect in percent using herbicide A at an application rate a; • Y=effect in percent using herbicide B at application rate b; • E=expected effect (in %) of herbicide A+herbicide B at application rates a+b.
as §8

Anthemis arvensis = assay: Greenhouse preemergence herbicidal activity, ANTAR; details: 20 DAT
Experimental: as §1, §2, §3, §4, §5, §6, §9, §10, §11, §8

Chenopodium album = assay: Greenhouse preemergence herbicidal activity, CHEAL; details: 20 DAT
Experimental: as §1, §2, §3, §4, §5, §6, §7, §8

Galium aparine = assay: Greenhouse preemergence herbicidal activity, GALAP; details: 20 DAT
Experimental: as §1, §2, §3, §4, §5, §6, §9, §10, §11, §8

Geranium dissectum [1] = assay: Greenhouse preemergence herbicidal activity, GERDI; details: 20 DAT
Experimental: as §1, §2, §3, §4, §5, §6, §9, §10, §11, §8

Lolium multiflorum = assay: Greenhouse preemergence herbicidal activity, LOLMU; details: 20 DAT
Experimental: as §1, §2, §3, §4, §5, §6, §9, §10, §11, §8

Polygonum convolvulus = assay: Greenhouse preemergence herbicidal activity, POLCO; details: 20 DAT
Experimental: as §1, §2, §3, §4, §5, §6, §9, §10, §11, §8

Sorghum halepense = assay: Greenhouse preemergence herbicidal activity, SORHA; details: 20 DAT
Experimental: as §1, §2, §3, §4, §5, §6, §9, §10, §11, §8

Abutilon theophrasti = assay: Greenhouse preemergence herbicidal activity, ABUTH; details: 20 DAT
Experimental: as §1, §2, §3, §4, §5, §6, §9, §10, §11, §8

Setaria viridis [2] = assay: Greenhouse preemergence herbicidal activity, SETVI; details: 20 DAT
Experimental: as §1, §2, §3, §4, §5, §6, §9, §10, §11, §8

Stellaria media = assay: Greenhouse preemergence herbicidal activity, STEME; details: 20 DAT
Experimental: as §1, §2, §3, §4, §5, §6, §9, §10, §11, §8

Digitaria sanguinalis = assay: Greenhouse postemergence herbicidal activity, DIGSA; details: 20 DAT
Experimental: (§12) For the post emergence treatment, the plants were first grown to the 2 leaf station (GS 12). Here, the herbicidal compositions were suspended or emulsified in water as distribution medium and sprayed using finely distributing nozzles.
as §2, §3, §4, §5, §6, §9, §10, §11, §8

Geranium dissectum [3] = assay: Greenhouse postemergence herbicidal activity, GERDI; details: herbicide A solo 62.5 g ai/ha, 20 DAT
Experimental: as §12, §2, §3, §4, §5, §6, §7, §8

Setaria viridis [4] = assay: Greenhouse postemergence herbicidal activity, SETVI; details: 20 DAT
Experimental: as §12, §2, §3, §4, §5, §6, §7, §8

[5] = sulfentrazone solo 12.5 g ai/ha

`Cc1ccccc1CO[C@@H]1C[C@]2(C(C)C)CC[C@@]1(C)O2` (racemic) [herbicide A, (±)-2-exo-(2-Methylbenzyloxy)-1-methyl-4-isopropyl-7-oxabicyclo[2.2.1]heptane] showed a herbicidal activity (Avena fatua; herbicide A solo 62.5 g ai/ha) of 40%, a herbicidal activity (Avena fatua; herbicide A solo 250 g ai/ha) of 65% and a herbicidal activity (Alopecurus myosuroides; herbicide A solo 31.25 g ai/ha) of 95%. It also gave a herbicidal activity (Alopecurus myosuroides; herbicide A solo 62.5 g ai/ha) of 98%, a herbicidal activity (Anthemis arvensis; herbicide A solo 25 g ai/ha) of 0% and a herbicidal activity (Anthemis arvensis; herbicide A solo 31.25 g ai/ha) of 0%. It also gave a herbicidal activity (Anthemis arvensis; herbicide A solo 62.5 g ai/ha) of 0%, a herbicidal activity (Anthemis arvensis; herbicide A solo 125 g ai/ha) of 20% and a herbicidal activity (Chenopodium album; herbicide A solo 62.5 g ai/ha) of 45%. For the same compound, the herbicidal activity (Chenopodium album; herbicide A solo 125 g ai/ha) was 60%, the herbicidal activity (Galium aparine; herbicide A solo 31.25 g ai/ha) was 30% and the herbicidal activity (Galium aparine; herbicide A solo 62.5 g ai/ha) was 0%. For the same compound, the herbicidal activity (Galium aparine; herbicide A solo 125 g ai/ha) was 0%, the herbicidal activity (Galium aparine; herbicide A solo 200 g ai/ha) was 30% and the herbicidal activity (Galium aparine; herbicide A solo 500 g ai/ha) was 70%. The herbicidal activity (Geranium dissectum [1]; herbicide A solo 50 g ai/ha) was 50%, the herbicidal activity (Geranium dissectum [1]; herbicide A solo 62.5 g ai/ha) was 70% and 80% and the herbicidal activity (Geranium dissectum [1]; herbicide A solo 100 g ai/ha) was 50%. The herbicidal activity (Geranium dissectum [1]; herbicide A solo 125 g ai/ha) was 70%, the herbicidal activity (Geranium dissectum [1]; herbicide A solo 250 g ai/ha) was 70% and the herbicidal activity (Lolium multiflorum; herbicide A solo 25 g ai/ha) was 50%. The herbicidal activity (Lolium multiflorum; herbicide A solo 31.25 g ai/ha) was 75%, the herbicidal activity (Lolium multiflorum; herbicide A solo 62.5 g ai/ha) was 85% and 90% and the herbicidal activity (Lolium multiflorum; herbicide A solo 125 g ai/ha) was 90%. For the same compound, the herbicidal activity (Lolium multiflorum; herbicide A solo 500 g ai/ha) was 95%, the herbicidal activity (Polygonum convolvulus; herbicide A solo 25 g ai/ha) was 0% and the herbicidal activity (Polygonum convolvulus; herbicide A solo 50 g ai/ha) was 0%. For the same compound, the herbicidal activity (Polygonum convolvulus; herbicide A solo 62.5 g ai/ha) was 0%, the herbicidal activity (Polygonum convolvulus; herbicide A solo 250 g ai/ha) was 45% and the herbicidal activity (Sorghum halepense; herbicide A solo 25 g ai/ha) was 90%. For the same compound, the herbicidal activity (Sorghum halepense; herbicide A solo 62.5 g ai/ha) was 90%, the herbicidal activity (Sorghum halepense; herbicide A solo 125 g ai/ha) was 95% and the herbicidal activity (Sorghum halepense; herbicide A solo 250 g ai/ha) was 98%. The herbicidal activity (Abutilon theophrasti; herbicide A solo 50 g ai/ha) was 0%, the herbicidal activity (Abutilon theophrasti; herbicide A solo 100 g ai/ha) was 0% and the herbicidal activity (Setaria viridis [2]; herbicide A solo 25 g ai/ha) was 75%. It also gave a herbicidal activity (Setaria viridis [2]; herbicide A solo 31.25 g ai/ha) of 95%, a herbicidal activity (Stellaria media; herbicide A solo 25 g ai/ha) of 20% and a herbicidal activity (Stellaria media; herbicide A solo 50 g ai/ha) of 20%. For the same compound, the herbicidal activity (Stellaria media; herbicide A solo 62.5 g ai/ha) was 45%, the herbicidal activity (Digitaria sanguinalis; herbicide A solo 62.5 g ai/ha) was 60% and the herbicidal activity (Digitaria sanguinalis; herbicide A solo 125 g ai/ha) was 65%. The herbicidal activity (Digitaria sanguinalis; herbicide A solo 250 g ai/ha) was 80%, the herbicidal activity (Geranium dissectum [3]) was 75% and the herbicidal activity (Setaria viridis [4]; herbicide A solo 62.5 g ai/ha) was 40%. For the same compound, the herbicidal activity (Setaria viridis [4]; herbicide A solo 125 g ai/ha) was 60%.
For `Cc1nn(-c2cc(NS(C)(=O)=O)c(Cl)cc2Cl)c(=O)n1C(F)F` [sulfentrazone, 2′,4′-dichloro-5′-(4-difluoromethyl-4,5-dihydro-3-methyl-5-oxo-1H-1,2,4-triazol-1-yl)methanesulfonanilide], the herbicidal activity (Alopecurus myosuroides; sulfentrazone solo 25 g ai/ha) was 35%, the herbicidal activity (Anthemis arvensis; [5]) was 40% and the herbicidal activity (Anthemis arvensis; sulfentrazone solo 25 g ai/ha) was 85%. For the same compound, the herbicidal activity (Galium aparine; sulfentrazone solo 100 g ai/ha) was 98%, the herbicidal activity (Geranium dissectum [1]; sulfentrazone solo 25 g ai/ha) was 50% and the herbicidal activity (Lolium multiflorum; [5]) was 0%. The herbicidal activity (Lolium multiflorum; sulfentrazone solo 100 g ai/ha) was 80%, the herbicidal activity (Polygonum convolvulus; [5]) was 20% and the herbicidal activity (Polygonum convolvulus; sulfentrazone solo 25 g ai/ha) was 90%. The herbicidal activity (Sorghum halepense; [5]) was 0%, the herbicidal activity (Sorghum halepense; sulfentrazone solo 100 g ai/ha) was 80% and the herbicidal activity (Abutilon theophrasti; sulfentrazone solo 25 g ai/ha) was 65%. For the same compound, the herbicidal activity (Abutilon theophrasti; sulfentrazone solo 50 g ai/ha) was 65%, the herbicidal activity (Setaria viridis [2]; [5]) was 0% and the herbicidal activity (Setaria viridis [2]; sulfentrazone solo 25 g ai/ha) was 65%. The herbicidal activity (Stellaria media; [5]) was 0%, the herbicidal activity (Stellaria media; sulfentrazone solo 25 g ai/ha) was 20% and the herbicidal activity (Stellaria media; sulfentrazone solo 50 g ai/ha) was 40%.
